From ChEMBL document CHEMBL1147943, “Antiproliferative activity of 4-chloro-5,6-dihydro-2H-pyrans. Part 2: Enhancement of drug cytotoxicity” (2007)

Columns and labels:
Type in all cases: functional
Settings in all cases: for CC50: read-out: LC50 (the source's name)
[1] = system: A2780; test: Antiproliferative activity against human A2780 cells
[2] = system: SW1573; test: Antiproliferative activity against human SW1573 cells
[3] = system: WiDr; test: Antiproliferative activity against human WiDr cells

| Structure (SMILES) | GI50 [1] [µM] | TGI [1] [µM] | CC50 [1] [µM] | GI50 [2] [µM] | TGI [2] [µM] | CC50 [2] [µM] | GI50 [3] [µM] | TGI [3] [µM] | CC50 [3] [µM] |
| --- | --- | --- | --- | --- | --- | --- | --- | --- | --- |
| C=CCC[C@H]1O[C@@H](C)[C@H](C)C(Cl)=C1[Si](C)(C)C | 17 | 36 | 19 | 23 | 55 | 92 | 37 |  |  |
| C[C@@H]1O[C@H](C2CCCCC2)C([Si](C)(C)C)=C(Cl)[C@H]1C | 19 | 38 | 77 | 20 | 41 | 76 | 42 | 84 |  |
| C[C@H]1CC(Cl)=C([Si](C)(C)C)[C@@H](C2CCCCC2)O1 | 17 | 32 | 61 | 16 | 31 | 62 | 15 | 33 | 74 |
| CC(C)CC1OCCC(Cl)=C1[Si](C)(C)C (centres undefined) | 27 | 66 | 92 | 10 | 28 | 65 | 20 | 39 | 79 |
| ClC1=CC(C2CCCCC2)OCC1 (centres undefined) | 20 |  |  | 26 |  |  | 100 |  |  |
| ClC1=CC(CCC=C(Br)Br)OCC1 (centres undefined) | 16 | 53 | 76 | 30 | 92 |  | 23 | 57 | 96 |
| C[Si](C)(C)C1=C(Cl)C[C@H](C2CCCCC2)O[C@@H]1C1CCCCC1 | 22 | 46 | 90 | 23 | 48 | 88 | 30 | 81 | 97 |
| C[Si](C)(C)C1=C(Cl)C[C@H](Cc2ccccc2)O[C@@H]1CCCCCCCCCC1C=C(Cl)CCO1 (some centres undefined) | 23 | 47 | 96 | 30 | 68 |  | 67 |  |  |
| C[C@@H]1O[C@H](CCC=C(Br)Br)C([Si](C)(C)C)=C(Cl)[C@H]1C | 16 | 33 | 70 | 22 | 43 | 87 | 25 | 90 |  |
| CC[C@H]1CC(Cl)=C([Si](C)(C)C)[C@@H](C2CCCCC2)O1 | 16 | 35 | 75 | 22 | 49 | 91 | 29 | 73 | 95 |
| CC[C@@H](C)[C@H]1O[C@@H](C)CC(Cl)=C1[Si](C)(C)C | > 100 |  |  | > 100 |  |  | > 100 |  |  |
| ClC1=CC(CCCCCCCCCCC2C=C(Cl)CCO2)OCC1 (centres undefined) | 8.6 | 25 | 65 | 14 | 36 | 85 | 20 | 61 | 89 |
| CC(C)CC1C=C(Cl)CCO1 (centres undefined) | > 100 |  |  | > 100 |  |  | > 100 |  |  |
| C#CCCC1C=C(Cl)CCO1 (centres undefined) | 37 |  |  | 41 |  |  | > 100 |  |  |
| C[C@H]1CC(Cl)=C[C@@H](C2CCCCC2)O1 | 19 | 38 | 79 | 12 | 43 |  | 65 |  |  |
| C[Si](C)(C)C1=C(Cl)C[C@H](Cc2ccccc2)O[C@@H]1C1CCCCC1 | 34 | 78 |  | 30 |  |  | 62 | 88 |  |
| C#CCC[C@H]1O[C@@H](C)[C@H](C)C(Cl)=C1[Si](C)(C)C | 21 | 39 | 75 | 19 | 37 | 75 | 24 | 68 | 85 |
